Assay results: PubChem BioAssay AID2060506 (Molecular Pharmacology Branch, DTP, NCI, 2025)

Tested on: 598228-144-R-J1-PDC complex spheroid viability
Assay: Anticancer human tumor 598228-144-R-J1-PDC patient-derived serous endometrial adenocarcinoma cell line growth inhibition [GQUAD]
Conditions: for IC50: curve of first compound; for viability, T/C: stronger effect = lower value
Procedure, shortened: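 Viability of tumor cells grown as complex spheroids with endothelial and stromal cells, exposed to drug combinations. Top concentration at or near clinical Cmax (else 10 microM), diluted in half-log increments.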

[1] = second compound 0.0316 µM, first compound 0.0316 µM
[2] = second compound 0.0316 µM, first compound 0.1 µM
[3] = second compound 0.0316 µM, first compound 0.316 µM
[4] = second compound 0.0316 µM, first compound 1 µM
[5] = second compound 0.0316 µM, first compound 3.16 µM
[6] = second compound 0.0316 µM, first compound 10 µM
[7] = second compound 0.1 µM, first compound 0.0316 µM
[8] = second compound 0.1 µM, first compound 0.1 µM
[9] = second compound 0.1 µM, first compound 0.316 µM
[10] = second compound 0.1 µM, first compound 1 µM
[11] = second compound 0.1 µM, first compound 3.16 µM
[12] = second compound 0.1 µM, first compound 10 µM
[13] = second compound 0.316 µM, first compound 0.0316 µM
[14] = second compound 0.316 µM, first compound 0.1 µM
[15] = second compound 0.316 µM, first compound 0.316 µM
[16] = second compound 0.316 µM, first compound 1 µM
[17] = second compound 0.316 µM, first compound 3.16 µM
[18] = second compound 0.316 µM, first compound 10 µM
[19] = second compound 1 µM, first compound 0.0316 µM
[20] = second compound 1 µM, first compound 0.1 µM
[21] = second compound 1 µM, first compound 0.316 µM
[22] = second compound 1 µM, first compound 1 µM
[23] = second compound 1 µM, first compound 3.16 µM
[24] = second compound 1 µM, first compound 10 µM
[25] = second compound 3.16 µM, first compound 0.0316 µM
[26] = second compound 3.16 µM, first compound 0.1 µM
[27] = second compound 3.16 µM, first compound 0.316 µM
[28] = second compound 3.16 µM, first compound 1 µM
[29] = second compound 3.16 µM, first compound 3.16 µM
[30] = second compound 3.16 µM, first compound 10 µM
[31] = second compound 10 µM, first compound 0.0316 µM
[32] = second compound 10 µM, first compound 0.1 µM
[33] = second compound 10 µM, first compound 0.316 µM
[34] = second compound 10 µM, first compound 1 µM
[35] = second compound 10 µM, first compound 3.16 µM
[36] = second compound 10 µM, first compound 10 µM
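Further: spheroids exposed to the agents for one week before reading.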
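Wherever viability, T/C is given: percent of vehicle DMSO control viability so 100% = untreated growth.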

With `COc1ncnc(C2CC2)c1-c1ncc2cnn(Cc3ccc(-c4nc(C(F)(F)F)cn4C(C)C)cc3)c2n1` + Cc1[nH]c2ccc(F)cc2c1-c1nc2c3cccnc3c3ncccc3c2[nH]1 as the compound, how does the IC50 (second compound 0.0316 µM) read?
The IC50 was > 10000 nM.

And the IC50 (second compound 0.1 µM)?
The IC50 was > 10000 nM.

And the IC50 (second compound 0.316 µM)?
The IC50 was > 10000 nM.

And the IC50 (second compound 1 µM)?
Its IC50 is > 10000 nM.

What about the IC50 (second compound 3.16 µM) of the same compound?
The IC50 was < 31.6 nM.

And the IC50 (second compound 10 µM)?
Its IC50 is > 10000 nM.

What about the viability, T/C [1] of the same compound?
Its viability, T/C is 130%.

What about the viability, T/C [2] of the same compound?
The viability, T/C was 124%.

And the viability, T/C [3]?
The viability, T/C was 125%.

What about the viability, T/C [4] of the same compound?
Its viability, T/C is 93.1%.

What about the viability, T/C [5] of the same compound?
Its viability, T/C is 119%.

What about the viability, T/C [6] of the same compound?
Its viability, T/C is 112%.

And the viability, T/C [7]?
Its viability, T/C is 116%.

What about the viability, T/C [8] of the same compound?
Its viability, T/C is 94.5%.

What about the viability, T/C [9] of the same compound?
The viability, T/C was 103%.

What about the viability, T/C [10] of the same compound?
Its viability, T/C is 91.8%.

And the viability, T/C [11]?
The viability, T/C was 114%.

What about the viability, T/C [12] of the same compound?
The viability, T/C was 130%.

And the viability, T/C [13]?
The viability, T/C was 94.3%.

And the viability, T/C [14]?
The viability, T/C was 93.3%.

And the viability, T/C [15]?
The viability, T/C was 82%.

And the viability, T/C [16]?
Its viability, T/C is 93.1%.

And the viability, T/C [17]?
The viability, T/C was 126%.

And the viability, T/C [18]?
The viability, T/C was 105%.

What about the viability, T/C [19] of the same compound?
Its viability, T/C is 51.1%.

And the viability, T/C [20]?
The viability, T/C was 76.1%.

What about the viability, T/C [21] of the same compound?
Its viability, T/C is 74.5%.

What about the viability, T/C [22] of the same compound?
The viability, T/C was 58%.

And the viability, T/C [23]?
The viability, T/C was 66.2%.

What about the viability, T/C [24] of the same compound?
The viability, T/C was 78.3%.

And the viability, T/C [25]?
Its viability, T/C is 38%.

And the viability, T/C [26]?
Its viability, T/C is 31.1%.

What about the viability, T/C [27] of the same compound?
Its viability, T/C is 39.2%.

And the viability, T/C [28]?
The viability, T/C was 34.2%.

What about the viability, T/C [29] of the same compound?
Its viability, T/C is 41.8%.

And the viability, T/C [30]?
The viability, T/C was 38.7%.

What about the viability, T/C [31] of the same compound?
Its viability, T/C is 65%.

What about the viability, T/C [32] of the same compound?
Its viability, T/C is 65%.

What about the viability, T/C [33] of the same compound?
The viability, T/C was 69.6%.

What about the viability, T/C [34] of the same compound?
Its viability, T/C is 57.2%.

And the viability, T/C [35]?
Its viability, T/C is 77.7%.

What about the viability, T/C [36] of the same compound?
Its viability, T/C is 105%.

How did the IC50 (second compound 0.0316 µM) turn out when `C=CC(=O)N1CCN(c2nc(=O)n(-c3c(C)ccnc3C(C)C)c3nc(-c4c(O)cccc4F)c(F)cc23)C(C)C1` (stereo unspecified) + Cc1cnc(CNC(=O)c2c(=O)c3ccc(N4CCCN(C)CC4)nc3n3c2sc2ccccc23)cn1 was run?
The IC50 was > 10000 nM.

What about the IC50 (second compound 0.1 µM) of the same compound?
The IC50 was > 10000 nM.

What about the IC50 (second compound 0.316 µM) of the same compound?
Its IC50 is > 10000 nM.

What about the IC50 (second compound 1 µM) of the same compound?
The IC50 was > 10000 nM.

What about the IC50 (second compound 3.16 µM) of the same compound?
Its IC50 is > 10000 nM.

And the IC50 (second compound 10 µM)?
Its IC50 is < 31.6 nM.

What about the viability, T/C [1] of the same compound?
The viability, T/C was 92.7%.

And the viability, T/C [2]?
The viability, T/C was 97.3%.

And the viability, T/C [3]?
Its viability, T/C is 91%.

And the viability, T/C [4]?
The viability, T/C was 83.2%.

What about the viability, T/C [5] of the same compound?
The viability, T/C was 102%.

What about the viability, T/C [6] of the same compound?
Its viability, T/C is 82.9%.

And the viability, T/C [7]?
The viability, T/C was 80.8%.

And the viability, T/C [8]?
The viability, T/C was 66.3%.

And the viability, T/C [9]?
The viability, T/C was 77.6%.

What about the viability, T/C [10] of the same compound?
Its viability, T/C is 81.7%.

And the viability, T/C [11]?
Its viability, T/C is 86.4%.

And the viability, T/C [12]?
The viability, T/C was 80.4%.

What about the viability, T/C [13] of the same compound?
Its viability, T/C is 89.3%.

And the viability, T/C [14]?
Its viability, T/C is 55.1%.

What about the viability, T/C [15] of the same compound?
Its viability, T/C is 62.6%.

And the viability, T/C [16]?
Its viability, T/C is 73.3%.

What about the viability, T/C [17] of the same compound?
The viability, T/C was 80.6%.

What about the viability, T/C [18] of the same compound?
Its viability, T/C is 64.1%.

And the viability, T/C [19]?
Its viability, T/C is 65.1%.

What about the viability, T/C [20] of the same compound?
The viability, T/C was 74.9%.

What about the viability, T/C [21] of the same compound?
Its viability, T/C is 58.2%.

What about the viability, T/C [22] of the same compound?
The viability, T/C was 83%.

What about the viability, T/C [23] of the same compound?
The viability, T/C was 77.6%.

And the viability, T/C [24]?
The viability, T/C was 79.8%.

And the viability, T/C [25]?
The viability, T/C was 69%.

What about the viability, T/C [26] of the same compound?
The viability, T/C was 60.4%.

What about the viability, T/C [27] of the same compound?
The viability, T/C was 60.1%.

What about the viability, T/C [28] of the same compound?
Its viability, T/C is 55.4%.

And the viability, T/C [29]?
Its viability, T/C is 63.3%.

And the viability, T/C [30]?
Its viability, T/C is 54%.

What about the viability, T/C [31] of the same compound?
The viability, T/C was 48.1%.

What about the viability, T/C [32] of the same compound?
Its viability, T/C is 36%.

And the viability, T/C [33]?
Its viability, T/C is 60.9%.

What about the viability, T/C [34] of the same compound?
Its viability, T/C is 50.9%.

And the viability, T/C [35]?
Its viability, T/C is 51.5%.

And the viability, T/C [36]?
Its viability, T/C is 5.43%.

What does the source list for `CC1COCCN1c1cc(-c2ccnn2C)c2ccnc(-c3ccn[nH]3)c2n1` (stereo unspecified) + Cc1cnc(CNC(=O)c2c(=O)c3ccc(N4CCCN(C)CC4)nc3n3c2sc2ccccc23)cn1?
IC50 (second compound 0.0316 µM): 56.5 nM; IC50 (second compound 0.1 µM): < 31.6 nM; IC50 (second compound 0.316 µM): 66 nM; IC50 (second compound 1 µM): 38.7 nM; IC50 (second compound 3.16 µM): < 31.6 nM; IC50 (second compound 10 µM): < 31.6 nM; viability, T/C [1]: 52%; viability, T/C [2]: 48.3%; viability, T/C [3]: 44.7%; viability, T/C [4]: 29.7%; viability, T/C [5]: 33.5%; viability, T/C [6]: 30.9%; viability, T/C [7]: 47.9%; viability, T/C [8]: 38.4%; viability, T/C [9]: 43%; viability, T/C [10]: 33.2%; viability, T/C [11]: 38.3%; viability, T/C [12]: 25.8%; viability, T/C [13]: 58.2%; viability, T/C [14]: 40.6%; viability, T/C [15]: 42.9%; viability, T/C [16]: 32.5%; viability, T/C [17]: 39.1%; viability, T/C [18]: 21.3%; viability, T/C [19]: 52.3%; viability, T/C [20]: 42%; viability, T/C [21]: 43.2%; viability, T/C [22]: 33%; viability, T/C [23]: 28.2%; viability, T/C [24]: 22.2%; viability, T/C [25]: 45.8%; viability, T/C [26]: 26.1%; viability, T/C [27]: 33.6%; viability, T/C [28]: 23.4%; viability, T/C [29]: 20.7%; viability, T/C [30]: 4.32%; viability, T/C [31]: 23.5%; viability, T/C [32]: 17.4%; viability, T/C [33]: 8.76%; viability, T/C [34]: 6.24%; viability, T/C [35]: 0.97%; viability, T/C [36]: 8.07%
